The target of one experiment is T1, α1a-AR (Homo sapiens, UniProt P35348).
T1 construct: expressed in transfected cells; host or cells: COS-7 cells (membranes)
T1 sequence (P35348 1-455 isoform P35348-4): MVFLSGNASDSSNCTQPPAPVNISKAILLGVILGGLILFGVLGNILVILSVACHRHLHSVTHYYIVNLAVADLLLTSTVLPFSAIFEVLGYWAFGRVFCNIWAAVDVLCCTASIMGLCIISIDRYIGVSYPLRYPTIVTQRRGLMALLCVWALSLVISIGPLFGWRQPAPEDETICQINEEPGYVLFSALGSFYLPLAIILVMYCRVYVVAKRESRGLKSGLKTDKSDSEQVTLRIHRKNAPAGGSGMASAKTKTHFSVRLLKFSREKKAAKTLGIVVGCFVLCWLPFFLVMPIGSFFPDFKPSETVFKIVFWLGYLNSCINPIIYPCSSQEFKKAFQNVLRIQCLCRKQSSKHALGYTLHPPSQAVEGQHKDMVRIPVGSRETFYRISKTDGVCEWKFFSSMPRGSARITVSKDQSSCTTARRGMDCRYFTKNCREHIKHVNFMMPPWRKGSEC
As to the kind of experiment: α1-Adrenergic Receptor Binding Assay (125I-HEAT radio-ligand), α1a subtype. To be noted: membranes of COS-7 cells transfected with α1a subtype; 125I-HEAT 50 pM; rt 1 hr. On the procedure:
(§1) α1-Adrenergic Receptor Binding Assay
(§2) Preparation of COS Cell Membranes
(§3) Membranes were prepared from COS-7 cells (African Green monkey kidney SV40-transformed cells) that had been transfected with one of the three α1-AR subtypes (Genbank accession number for the α1a subtype: AF013261; Genbank accession number for the α1b subtype: NM000679; Genbank accession number for the α1d subtype: NM000678) using the following method: COS cells from ten 100 mm tissue culture plates were scraped into a 5 mL volume of TE (a mixture of 50 mM Tris-HCl, 5 mM EDTA, pH 7.4). […] The disrupted cells were centrifuged at 1000×g min at 4° C. Supernatants were centrifuged at 34,500×g for 20 min at 4° C. The membrane pellets were suspended in a 2 mL volume of TNE (a mixture of 50 mM Tris-HCl, 5 mM EDTA and 150 mM NaCl at pH 7.4). An aliquot of the membrane suspension was stored at −70° C. until use. The protein concentration was determined using the BioRad “DC” protein assay kit following membrane solubilization with Triton X-100.
(§4) Radio-Ligand Binding Assay
(§5) Triplicate determinations of radio-ligand binding in the presence of increasing concentrations of testing compound were made. The reagents were added to 96-well polypropylene plate wells. […] The plate was incubated at rt for 1 hr. The contents of the wells were filtered through a glass filter (type C) (GF/C) membrane Unifilter plate (Packard Instruments) using the Packard Filtermate cell harvester. The filter plates were dried in a vacuum oven for 30 min at 40° C. 25 μL Microscint 20 liquid scintillation fluid (Packard Instruments) was added to each well. The radioactive content was analyzed in the TopCount microplate scintillation counter (Packard Instruments).

In another experiment the target is T2, α1d-AR (Homo sapiens, UniProt P25100).
T2 construct: expressed in transfected cells; host or cells: COS-7 cells (membranes)
T2 sequence (P25100 1-572): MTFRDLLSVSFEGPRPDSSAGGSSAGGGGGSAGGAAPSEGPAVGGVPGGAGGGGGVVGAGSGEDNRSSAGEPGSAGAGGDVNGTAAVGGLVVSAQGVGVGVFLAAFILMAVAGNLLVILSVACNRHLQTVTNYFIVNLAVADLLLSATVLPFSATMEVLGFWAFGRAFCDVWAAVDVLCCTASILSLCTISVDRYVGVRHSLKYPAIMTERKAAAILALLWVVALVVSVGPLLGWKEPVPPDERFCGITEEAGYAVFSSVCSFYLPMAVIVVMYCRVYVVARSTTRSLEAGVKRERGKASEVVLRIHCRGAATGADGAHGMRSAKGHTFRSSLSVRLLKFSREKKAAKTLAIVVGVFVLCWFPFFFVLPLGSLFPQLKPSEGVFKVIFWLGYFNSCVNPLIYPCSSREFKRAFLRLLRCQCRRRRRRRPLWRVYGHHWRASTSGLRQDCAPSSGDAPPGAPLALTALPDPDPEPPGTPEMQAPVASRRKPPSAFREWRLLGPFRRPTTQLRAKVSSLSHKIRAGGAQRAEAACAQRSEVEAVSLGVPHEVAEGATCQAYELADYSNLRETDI
As to the kind of experiment: α1-Adrenergic Receptor Binding Assay (125I-HEAT radio-ligand), α1d subtype. To be noted: membranes of COS-7 cells transfected with α1d subtype; 125I-HEAT 50 pM; rt 1 hr. On the procedure:
as §1, §2, §3, §4, §5

In the next experiment the target is T3, α1b-AR (Homo sapiens, UniProt P35368).
T3 construct: expressed in transfected cells; host or cells: COS-7 cells (membranes)
T3 sequence (P35368 1-520): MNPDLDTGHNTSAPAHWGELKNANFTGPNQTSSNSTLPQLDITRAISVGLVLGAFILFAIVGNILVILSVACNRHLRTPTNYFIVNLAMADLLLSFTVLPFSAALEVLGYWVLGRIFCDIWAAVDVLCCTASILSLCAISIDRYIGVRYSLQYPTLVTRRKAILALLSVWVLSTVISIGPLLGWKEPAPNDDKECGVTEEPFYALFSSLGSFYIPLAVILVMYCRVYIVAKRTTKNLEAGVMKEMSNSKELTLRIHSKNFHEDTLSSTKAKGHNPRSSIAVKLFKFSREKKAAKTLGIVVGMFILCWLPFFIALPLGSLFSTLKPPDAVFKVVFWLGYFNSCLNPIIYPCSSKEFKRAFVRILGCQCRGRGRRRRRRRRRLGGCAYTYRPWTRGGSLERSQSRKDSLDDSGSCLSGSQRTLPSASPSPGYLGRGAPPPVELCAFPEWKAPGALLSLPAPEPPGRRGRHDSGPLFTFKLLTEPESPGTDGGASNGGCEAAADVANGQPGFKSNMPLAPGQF
As to the kind of experiment: α1-Adrenergic Receptor Binding Assay (125I-HEAT radio-ligand), α1b subtype. To be noted: membranes of COS-7 cells transfected with α1b subtype; 125I-HEAT 50 pM; rt 1 hr. On the procedure:
as §1, §2, §3, §4, §5

Here are results for 19 molecules from patent US7517885B2, “Substituted [4-(4-phenyl-piperazin-1-yl)-cyclohexyl]-urea compounds” (Janssen Pharmaceutica N.V., priority 2005, dated 2009).

In the case of `CC(C)Oc1ccccc1N1CCN(C2CCC(NC(=O)Nc3ccccc3Oc3ccccc3)CC2)CC1` (mixture of isomers) [Cpd 17, 1-{4-[4-(2-isopropoxy-phenyl)-piperazin-1-yl]-cyclohexyl}-3-(2-phenoxy-phenyl)-urea], the inhibition constant Ki at α1a-AR came to 38 nM; at α1d-AR, 8.4 nM; on α1b-AR, 430 nM.
Taken in the same sequence, the figures for `COc1ccc(NC(=O)N[C@H]2CC[C@H](N3CCN(c4ccccc4OC(C)C)CC3)CC2)cc1Cl` [Cpd 35, 1-(3-chloro-4-methoxy-phenyl)-r-3-{t-4-[4-(2-isopropoxy-phenyl)-piperazin-1-yl]-cyclohexyl}-urea] were 13 nM, 2.3 nM and 108 nM.
Regarding `CC(C)Oc1ccccc1N1CCN([C@H]2CC[C@@H](NC(=O)Nc3c(F)cccc3F)CC2)CC1` [Cpd 26, 1-(2,6-difluoro-phenyl)-r-3-{c-4-[4-(2-isopropoxy-phenyl)-piperazin-1-yl]-cyclohexyl}-urea], the Ki on α1a-AR turned out to be 51.6 nM; on α1b-AR, 299 nM.
As for `CC(C)Oc1ccccc1N1CCN([C@H]2CC[C@H](NC(=O)Nc3cc(F)cc(F)c3)CC2)CC1` [Cpd 29, 1-(3,5-difluoro-phenyl)-r-3-{t-4-[4-(2-isopropoxy-phenyl)-piperazin-1-yl]-cyclohexyl}-urea], the Ki was determined as 5.7 nM at α1a-AR, 1 nM at α1d-AR and 52 nM at α1b-AR.
Take `CC(C)Oc1ccccc1N1CCN([C@H]2CC[C@H](NC(=O)Nc3c(Cl)cccc3Cl)CC2)CC1` [Cpd 14, 1-(2,6-dichloro-phenyl)-r-3-{t-4-[4-(2-isopropoxy-phenyl)-piperazin-1-yl]-cyclohexyl}-urea]: the Ki on α1a-AR is 6.2 nM.
As for `COc1ccccc1NC(=O)N[C@H]1CC[C@@H](N2CCN(c3ccccc3OC(C)C)CC2)CC1` [Cpd 1, 1-{c-4-[4-(2-isopropoxy-phenyl)-piperazin-1-yl]-cyclohexyl}-r-3-(2-methoxy-phenyl)-urea], the Ki on α1a-AR was 155 nM; at α1b-AR, 223 nM.
Take `CC(C)Oc1ccccc1N1CCN([C@H]2CC[C@@H](NC(=O)Nc3cccc(Cl)c3)CC2)CC1` [Cpd 11, 1-(3-chloro-phenyl)-r-3-{c-4-[4-(2-isopropoxy-phenyl)-piperazin-1-yl]-cyclohexyl}-urea]: on α1a-AR, the Ki stood at 22.2 nM. That is a double-digit nanomolar value.
`CC(C)Oc1ccccc1N1CCN([C@H]2CC[C@H](NC(=O)Nc3ccc(F)c(F)c3)CC2)CC1` [Cpd 8, 1-(3,4-difluoro-phenyl)-r-3-{t-4-[4-(2-isopropoxy-phenyl)-piperazin-1-yl]-cyclohexyl}-urea]: the Ki on α1a-AR was 3 nM; on α1b-AR, 74 nM.
With `COc1ccc(Cl)cc1NC(=O)N[C@H]1CC[C@@H](N2CCN(c3ccccc3OC(C)C)CC2)CC1` [Cpd 18, 1-(5-chloro-2-methoxy-phenyl)-r-3-{c-4-[4-(2-isopropoxy-phenyl)-piperazin-1-yl]-cyclohexyl}-urea], the Ki at α1a-AR is 101 nM; on α1d-AR, 64 nM.
Taken in the same sequence, the figures for `COc1ccc(NC(=O)N[C@H]2CC[C@@H](N3CCN(c4ccccc4OC(C)C)CC3)CC2)c(OC)c1` [Cpd 3, 1-(2,4-dimethoxy-phenyl)-r-3-{c-4-[4-(2-isopropoxy-phenyl)-piperazin-1-yl]-cyclohexyl}-urea] were 110 nM and 92 nM.
The like results for `COc1ccc(NC(=O)N[C@H]2CC[C@H](N3CCN(c4ccccc4OC(C)C)CC3)CC2)c(OC)c1` [Cpd 4, 1-(2,4-dimethoxy-phenyl)-r-3-{t-4-[4-(2-isopropoxy-phenyl)-piperazin-1-yl]-cyclohexyl}-urea] were, in that order, 74 nM and 20 nM.
On α1a-AR, `CC(C)Oc1ccccc1N1CCN([C@H]2CC[C@H](NC(=O)Nc3cccc(Cl)c3)CC2)CC1` [Cpd 12, 1-(3-chloro-phenyl)-r-3-{t-4-[4-(2-isopropoxy-phenyl)-piperazin-1-yl]-cyclohexyl}-urea] returned a Ki of 5.1 nM.
As to `CC(C)Oc1ccccc1N1CCN([C@H]2CC[C@H](NC(=O)Nc3ccc(F)cc3F)CC2)CC1` [Cpd 23, 1-(2,4-difluoro-phenyl)-r-3-{t-4-[4-(2-isopropoxy-phenyl)-piperazin-1-yl]-cyclohexyl}-urea], the values for the Ki on α1a-AR and on α1b-AR were 3.1 nM and 76 nM, respectively.
Taken in the same sequence, the figures for `CC(C)Oc1ccccc1N1CCN([C@H]2CC[C@@H](NC(=O)Nc3ccc(F)c(F)c3)CC2)CC1` [Cpd 7, 1-(3,4-difluoro-phenyl)-r-3-{c-4-[4-(2-isopropoxy-phenyl)-piperazin-1-yl]-cyclohexyl}-urea] were 50.6 nM and 963 nM.
Take `COc1ccc(Cl)cc1NC(=O)N[C@H]1CC[C@H](N2CCN(c3ccccc3OC(C)C)CC2)CC1` [Cpd 19, 1-(5-chloro-2-methoxy-phenyl)-r-3-{t-4-[4-(2-isopropoxy-phenyl)-piperazin-1-yl]-cyclohexyl}-urea]: the Ki came to 34 nM on α1a-AR and 2.7 nM at α1d-AR.
`CC(C)Oc1ccccc1N1CCN([C@H]2CC[C@@H](NC(=O)Nc3ccc(F)cc3F)CC2)CC1` [Cpd 22, 1-(2,4-difluoro-phenyl)-r-3-{c-4-[4-(2-isopropoxy-phenyl)-piperazin-1-yl]-cyclohexyl}-urea]: the figures for the Ki at α1a-AR and at α1b-AR were 14 nM and 475 nM, respectively.
In turn, `CC(C)Oc1ccccc1N1CCN([C@H]2CC[C@@H](NC(=O)Nc3c(Cl)cccc3Cl)CC2)CC1` [Cpd 13, 1-(2,6-dichloro-phenyl)-r-3-{c-4-[4-(2-isopropoxy-phenyl)-piperazin-1-yl]-cyclohexyl}-urea] showed a Ki at α1a-AR of 33.4 nM.
Turning to `CC(C)Oc1ccccc1N1CCN([C@H]2CC[C@H](NC(=O)Nc3c(F)cccc3F)CC2)CC1` [Cpd 27, 1-(2,6-difluoro-phenyl)-r-3-{t-4-[4-(2-isopropoxy-phenyl)-piperazin-1-yl]-cyclohexyl}-urea], the Ki on α1a-AR came out at 5.3 nM; on α1b-AR it was 35.6 nM.
As for `COc1ccccc1NC(=O)N[C@H]1CC[C@H](N2CCN(c3ccccc3OC(C)C)CC2)CC1` [Cpd 2, 1-{t-4-[4-(2-isopropoxy-phenyl)-piperazin-1-yl]-cyclohexyl}-r-3-(2-methoxy-phenyl)-urea], the Ki was determined as 38 nM at α1a-AR and 107 nM at α1b-AR.

Usually Ki stands for the equilibrium dissociation constant of an inhibitor or competing ligand from its target. A high value points to a looser hold on the target.
